Consider two molecules from patent US20260297508A1, “MODULATORS OF PROTEIN SECRETION” (SANOFI, priority 2023, published 2026).

The subject of series [1] is biotin-induced antibody release, U2OS clone #7 cells. Nature of the series: Low-throughput validation by imaging of the biotin-induced antibody release (cytoplasmic GFP), clone #7. The format is cell-based, human. The settings on record: FIG. 5C. The protocol:
FIGS. 5A-5C show selection of potential enhancers of protein secretion. FIGS. 5A and 5B) show dot plot representations of drugs efficiency based on their Z-scores measured at low and high drug concentration (FIG. 5A, Prestwick library; FIG. 5B, ICCB Known Bioactives and TargetMol Autophagy libraries). Compounds selected for further characterization are listed. (FIG. 5C) Clone #7 was treated with the indicated compounds, fixed and analyzed as described in FIG. 4A legend.
FIG. 6A-6C show validation of enhancers of protein secretion.
(§1) U2OS clone #7 cells were seeded in black 384-well imaging plates (Greiner bio one), 2,000 cells/well, and incubated for 24 h at 37° C. in a humidified incubator with 5% CO2. Cells were treated on the next day with the compounds from either the Prestwick library at […], the ICCB Known Bioactives library at 1/100^e or 1/1000^e, or the autophagy compound library at 10 μM or 1 μM for 4 h. […] Cells were then fixed as described above and processed for subsequent automated image acquisition using a robot-assisted IXM XL BioImager (Molecular Devices, Sunnyvale, CA, USA) equipped with a Sola light source (Lumencor, Beaverton, OR, USA), adapted excitation and emission filters (Semrock) a 16-bit monochrome sCMOS PCO.edge 5.5 camera (PCO, Kelheim, Germany). A 20× PlanAPO objective (Nikon, Tokyo, Japan) was used to acquire a minimum of 4 view fields in each well. […] Nuclei were first detected using Hoechst 33342 signal and used as a marker to detect cytoplasmic areas based on GFP signal, allowing for the evaluation of cytoplasmic GFP intensity. Data were thereafter extracted and statistically evaluated using R (https://www.r-project.org). […]
Medium- and high-throughput screenings often yield false positive and negative hits, calling for independent validation in low-throughput experiments with orthogonal technologies. In a first round of experiments, we evaluated the effects of shortlisted compounds with potential antibody secretion enhancer activity. […]

A further series deals with NLRP3. The settings on record: cited from earlier work.
The next series deals with U2OS clone #7 cells. Briefly: Toxicity assay: Hoechst staining, number of adherent living cells. The class given is cell-based, human. The settings on record: 50 μg/mL; FIG. 7B. The protocol:
(§2) FIGS. 7A and 7B show validation of inhibitors of protein secretion. […] Clone #7 cells were treated with the indicated compounds and supernatants were assayed for PD-L1 binding. Brefeldin A was used as a protein secretion inhibitor positive control. […] Hoechst 33324 fluorescence was measured, which enabled to number adherent living cells in each well.
as §1, with “Germany).” for “Germany). A 20× PlanAPO objective (Nikon, Tokyo, Japan) was used to acquire a minimum of 4 view fields in each well.”

Series [2] relates to biotin-induced antibody release, U2OS clone #7 cells. Nature of the series: High-throughput RUSH screen: biotin-induced cytoplasmic GFP signal decay (antibody release), U2OS clone #7. The settings on record: for inhibition of the biotin-induced decrease of the GFP signal: 4 h compound, then 40 μM biotin 1 h, screening; for retention of the RUSH antibody in the cytoplasm: screening campaigns, summary. The format is cell-based, human. The protocol: FIGS. 4A-4C show the high-throughput screening of chemical compound libraries for the identification of modulators of protein secretion. […] U2OS clone #7 is plated in 384-well plates and incubated for 24 h before treatment with each compound of the Prestwick, ICCB Known Bioactives, or Autophagy Compound Library at 2 concentrations, low and high (with a 10-fold difference). […] The results of the Prestwick library screening at the low drug concentration are plotted. Brefeldin A was used as a positive control of the inhibition of secretion. The compounds causing a cytoplasmic GFP intensity below that observed for biotin-only treated cells are potential enhancers of protein secretion.
U2OS cells were transfected with the streptavidin-KDEL plasmid using Lipofectamine 2000 (Thermo Fisher Scientific) and selected in medium supplemented with G418 (400 μg/mL, Gibco-Invitrogen) for 2 weeks. Limiting dilution in 96-well plates was used for single cell isolation from the selected pool. Clones were amplified and selected based on streptavidin immunofluorescence. Clone #BD6 showing the highest streptavidin expression was further expanded in medium supplemented with G418 (200 μg/mL) and transfected with the anti-PD-L1 IgG RUSH plasmid using Lipofectamine 2000 and selected in medium supplemented with G418 (200 μg/mL) and hygromycin (100 μg/mL, Santa Cruz Biotechnology) for 2 weeks. Limiting dilution in 96-well plates was used for single cell isolation from clone #BD6-derived selected pool. Clones were amplified and selected based on GFP fluorescence and clone #7 was selected for further characterization and screening campaigns.
U2OS clone #7 cells were seeded in black 384-well imaging plates (Greiner bio one), 2,000 cells/well, and incubated for 24 h at 37° C. in a humidified incubator with 5% CO2. Cells were treated on the next day with the compounds from either the Prestwick library at […], the ICCB Known Bioactives library at 1/100^e or 1/1000^e, or the autophagy compound library at 10 μM or 1 μM for 4 h. […] Cells were then fixed as described above and processed for subsequent automated image acquisition using a robot-assisted IXM XL BioImager (Molecular Devices, Sunnyvale, CA, USA) equipped with a Sola light source (Lumencor, Beaverton, OR, USA), adapted excitation and emission filters (Semrock) a 16-bit monochrome sCMOS PCO.edge 5.5 camera (PCO, Kelheim, Germany). A 20× PlanAPO objective (Nikon, Tokyo, Japan) was used to acquire a minimum of 4 view fields in each well. The acquired images were processed using the open-access R software (https://www.r-project.org) with the help of freely available packages EBImage (available on the Bioconductor repository https://www.bioconductor.org), and RBioFormats (https://github.com/aoles/RBioFormats), and the custom packages MetaxpR (https://github.com/asauvat/MetaxpR) and MorphR (https://github.com/kroemerlab/MorphR). Nuclei were first detected using Hoechst 33342 signal and used as a marker to detect cytoplasmic areas based on GFP signal, allowing for the evaluation of cytoplasmic GFP intensity. Data were thereafter extracted and statistically evaluated using R (https://www.r-project.org). Data were normalized using negative and positive controls, reduced and transformed into a Z-score. The experiments were repeated manually at low scale with selected drugs to confirm their effects on secretion, in this second set of assays, U2OS clone #7 cells incubated with secretion inhibitors were fixed and stained with Hoechst as described above for imaging and viability determination based on cell counts.
We next sought to use clone #7 in screening campaigns for the identification of drugs capable of enhancing or inhibiting antibody secretion. […] Cell counting was facilitated by nuclear counterstaining with Hoechst 33324 in order to assess viability and distinguish drug effects on the secretion kinetics from direct cytotoxicity and select relevant drugs for further characterization. […]

The test system of another series is eryptosis; apoptosis. Particulars: cited from earlier work.
Series [3] deals with RUSH antibody secretion, U2OS clone #7 cells. Nature of the series: ELISA on immobilized PD-L1: RUSH antibody titer in supernatant of treated clone #7 cells. The format is cell-based, human. Particulars: 50 μg/mL; for inhibition of antibody secretion, validation: summary; for suppression of antibody secretion compared with brefeldin A: 4 h compound, biotin 30 min, FIG. 7A. The protocol:
as §2
U2OS clone #7 cells were seeded in 6-well plates and kept for 24 h at 37° C. in a humidified incubator with 5% CO2. The next day, the supernatants were removed, cells were rinsed with 37° C. pre-heated PBS and new medium containing the chemical treatment was added for 4 h. […] Then supernatants were collected and used for the ELISA assay as follows. MaxiSorp 96-well plates (Thermo Fisher Scientific) were coated with 0.5 μg/mL hFc-human-PD-L1 (R&D Systems, Minneapolis, MN) in PBS for 5.5 h at RT. Coating solution was then removed and 2% BSA/PBS blocking solution was added overnight at 4° C. The next day, wells were washed 3 times with 0.5% BSA/0.05% Tween-20/PBS solution. Supernatants were added after a ⅓ dilution in 0.5% BSA/0.05% Tween-20/PBS, for 2.3 h at RT. Wells were washed 3 times with 0.5% BSA/0.05% Tween-20/PBS solution. Anti-human kappa light chain HRP-coupled antibody was added diluted in 0.5% BSA/0.05% Tween-20/PBS at 1/4000^e for 2.3 h at RT. Wells were washed 3 times with 0.5% BSA/0.05% Tween-20/PBS solution before incubation with substrate reagents pack (R&D Systems) for 15 min in the dark. Fifty μL of STOP solution (R&D Systems) were then added to each well and the absorbance in each well was subsequently measured at 450 nm, and 635 nm for background subtraction, using a VICTOR™ X4 (PerkinElmer, Waltham, MA).
Medium- and high-throughput screenings often yield false positive and negative hits, calling for independent validation in low-throughput experiments with orthogonal technologies. In a first round of experiments, we evaluated the effects of shortlisted compounds with potential antibody secretion enhancer activity. Compounds identified in the screening campaigns were tested again on clone #7 at a low concentration (FIG. 6A) or a ten-fold higher concentration (FIG. 6B) for their ability to increase antibody secretion. […] We further characterized these hits in an PD-L1 binding ELISA.
On the technique in general: ELISA stands for enzyme-linked immunosorbent assay.

Another series addresses tyrosine kinase. The settings on record: tyrosine kinase inhibitor; cited from earlier work.
The test system of another series is TrKB. The settings on record: cited from earlier work.
In a further series the test system is TrKC. The settings on record: cited from earlier work.
Another series concerns ErbB2 tyrosine kinase. Particulars: ErbB2 vs EGFR; cited from earlier work.
In the next series the test system is TrKA. Particulars: cited from earlier work.

Regarding `CO[C@@H]1C[C@@H](C[C@H]2CC[C@H](C)[C@H]([C@@H](C)C(=O)O)O2)O[C@]2(O[C@](C)([C@H]3CC[C@@](C)([C@@H]4O[C@@H]([C@H]5O[C@@](O)(CO)[C@H](C)C[C@@H]5C)C[C@@H]4C)O3)C[C@H]2C)[C@@H]1C` [nigericin], the “effect on secretion by cell imaging” value in series [1] was “inhibitory effect”. In addition, in the series with NLRP3, the “NLRP3 activation, release of IL-1β” value was “leading to the release of IL-1β”. Further, the cellular viability entry with U2OS clone #7 cells is on record as “without affecting cellular viability”. Moreover, in series [2], the “inhibition of the biotin-induced decrease of the GFP signal” value was “inhibited the biotin-induced cytoplasmic GFP signal decay” and the “retention of the RUSH antibody in the cytoplasm” value was “caused the retention of the RUSH antibody in the cytoplasm”. In the series on eryptosis; apoptosis, the apoptosis result is listed as “triggers apoptosis” and the eryptosis entry was “promote eryptosis”. Moreover, in series [3], the “inhibition of antibody secretion, validation” value was “confirmed as a secretion inhibitor” and the “suppression of antibody secretion compared with brefeldin A” value was “as potent as brefeldin A in suppressing antibody secretion”.

A word on the IC50: it is the concentration needed to halve the response being measured. Consider `CC(C)(C)c1cc(/C=C(\C#N)C(N)=S)cc(C(C)(C)C)c1O` [tyrphostin AG-879], for which the “effect on secretion by cell imaging” value in series [1] is “inhibitory effect”. Moreover, the cellular viability result in the series on U2OS clone #7 cells is “without affecting cellular viability”. For the same molecule, the IC50 on tyrosine kinase is 10 µM. Further, in series [2], the “inhibition of the biotin-induced decrease of the GFP signal” value was “inhibited the biotin-induced cytoplasmic GFP signal decay” and the “retention of the RUSH antibody in the cytoplasm” value was “caused the retention of the RUSH antibody in the cytoplasm”. For the same molecule, the “inhibitory effect on TrKB” value in the series with TrKB is “no inhibitory effect”. Besides, the “inhibitory effect on TrKC” value with TrKC is recorded as “no inhibitory effect”. Also, in [3], the “inhibition of antibody secretion, validation” value is listed as “validated as an inhibitor of antibody secretion” and the “suppression of antibody secretion compared with brefeldin A” value was “as potent as brefeldin A in suppressing antibody secretion”. Moreover, the “specificity to ErbB2 over EGFR” value in the series with ErbB2 tyrosine kinase is “at least 500 fold”. In the series with TrKA, the “inhibition of TrKA phosphorylation” value is given as “effectively inhibits TrKA phosphorylation”.
